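Growth conditions: 96-well plates. Treatment: test compound, 48 hours, 5 concentrations. Analysis: linear interpolation between bracketing concentrations; unreached endpoints set to highest concentration. Abbreviation: GI50, concentration required for 50% inhibition of growth.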 Active and inactive are the calls of the source. No stated cut-off is given here; in the data, active = GI50 up to about 1.1 µM and inactive = higher.
Key:
Assay in all cases: inhibition of tumour cell growth, NCI panel, 48 h
BT-549 = tested on: BT-549
DU-145 = tested on: DU-145
EKVX = tested on: EKVX
HCT-15 = tested on: HCT-15
HL-60 = tested on: HL-60
HT-29 = tested on: HT-29
KM12 = tested on: KM12
M14 = tested on: M14
MDA-MB-435 = tested on: MDA-MB-435
MDA-N = tested on: MDA-N
NCI-H226 = tested on: NCI-H226
NCI-H460 = tested on: NCI-H460
RPMI-8226 = tested on: RPMI-8226
SK-MEL-28 = tested on: SK-MEL-28
SN12C = tested on: SN12C
SR = tested on: SR
SW-620 = tested on: SW-620
U-251 = tested on: U-251
T47D = tested on: T47D
UO-31 = tested on: UO-31

| Structure (SMILES) | GI50 (BT-549) | GI50 (DU-145) | GI50 (EKVX) | GI50 (HCT-15) | GI50 (HL-60) | GI50 (HT-29) | GI50 (KM12) | GI50 (M14) | GI50 (MDA-MB-435) | GI50 (MDA-N) | GI50 (NCI-H226) | GI50 (NCI-H460) | GI50 (RPMI-8226) | GI50 (SK-MEL-28) | GI50 (SN12C) | GI50 (SR) | GI50 (SW-620) | GI50 (U-251) | GI50 (T47D) | GI50 (UO-31) |
| --- | --- | --- | --- | --- | --- | --- | --- | --- | --- | --- | --- | --- | --- | --- | --- | --- | --- | --- | --- | --- |
| O=C(O)c1ccc2[nH]c(=O)oc2c1 | > 100 µM (inactive) | > 100 µM (inactive) | > 100 µM (inactive) | > 100 µM | > 100 µM (inactive) | > 100 µM (inactive) | > 100 µM (inactive) | > 100 µM (inactive) | > 100 µM (inactive) | > 100 µM (inactive) | > 100 µM (inactive) | > 100 µM (inactive) | > 100 µM (inactive) | > 100 µM (inactive) | > 100 µM (inactive) | > 100 µM (inactive) | > 100 µM (inactive) | > 100 µM (inactive) |  |  |
| CCOC(=O)Cn1c(=O)c2nc(SC)sc2n(-c2ccc(C)cc2)c1=S |  | 98.4 µM (inactive) | 74.3 µM (inactive) | > 100 µM | > 100 µM (inactive) | > 87.3 µM (inactive) |  | > 61.7 µM (inactive) | 99.5 µM (inactive) | > 100 µM (inactive) | 23.8 µM (inactive) | 48 µM (inactive) | > 100 µM (inactive) | > 100 µM (inactive) | > 52.2 µM (inactive) | > 100 µM (inactive) | > 100 µM (inactive) | 24.5 µM (inactive) | > 87.1 µM (inactive) | 48.6 µM (inactive) |
| CCSc1nc2n(c(=S)n1)CCN2C |  |  | 28.4 µM (inactive) | 17.5 µM | 16.4 µM (inactive) | 17.4 µM (inactive) | 21.4 µM (inactive) | 15.8 µM (inactive) |  |  | 18.6 µM (inactive) | 21.1 µM (inactive) | 22 µM (inactive) | 20.1 µM (inactive) | 19.6 µM (inactive) | 7.67 µM (inactive) | 19.7 µM (inactive) | 19.8 µM (inactive) |  | 16.3 µM (inactive) |
| Cc1cccc(N2C(=O)C(Cl)=C(Cl)C2=O)c1 |  |  | > 74 µM (inactive) | > 41.7 µM | > 100 µM (inactive) | > 62.2 µM (inactive) | > 100 µM (inactive) | > 55.8 µM (inactive) |  |  | > 100 µM (inactive) | > 100 µM (inactive) | > 47.1 µM (inactive) | > 54.5 µM (inactive) | > 80.5 µM (inactive) | 18.2 µM (inactive) | > 44 µM (inactive) | > 100 µM (inactive) |  | > 100 µM (inactive) |
| C=C1C(=O)O[C@@H]2C=C(C)C3=CC(=O)[C@](C)(C[C@H](OC(=O)/C(C)=C\C)[C@@H]12)O3 |  | 4.1 µM (inactive) |  | 0.328 µM | 0.157 µM (active) | 0.647 µM (active) | 1.3 µM (inactive) | 0.644 µM (active) | 0.813 µM (active) | 0.311 µM (active) | 2.28 µM (inactive) | 2.18 µM (inactive) | 0.2 µM (active) | 1.24 µM (inactive) | 1.92 µM (inactive) | 0.201 µM (active) | 0.306 µM (active) | 1.85 µM (inactive) | 0.916 µM (active) | 1.09 µM (active) |
| Cn1cnc(N2CCCC2)c(C#N)c1=O |  | > 100 µM (inactive) | > 100 µM (inactive) | > 100 µM | > 100 µM (inactive) | > 100 µM (inactive) | > 100 µM (inactive) | > 100 µM (inactive) | > 100 µM (inactive) | > 100 µM (inactive) | > 100 µM (inactive) | > 100 µM (inactive) | > 100 µM (inactive) | > 100 µM (inactive) | > 100 µM (inactive) | > 100 µM (inactive) | > 100 µM (inactive) | > 100 µM (inactive) | > 100 µM (inactive) | > 100 µM (inactive) |
| COc1ccccc1NC(=S)NN=C(C)c1cccc(C(C)=NNC(=S)Nc2ccccc2OC)n1 |  | 24 µM (inactive) | 24 µM (inactive) | 28.5 µM | 26.3 µM (inactive) | 18 µM (inactive) | 26.1 µM (inactive) | 5.06 µM (inactive) | 23 µM (inactive) | 70.5 µM (inactive) | 28.4 µM (inactive) | 24 µM (inactive) | 24.6 µM (inactive) | 79.4 µM (inactive) | 30 µM (inactive) | 1.66 µM (inactive) | 7.73 µM (inactive) | 34.3 µM (inactive) | > 100 µM (inactive) | 20.6 µM (inactive) |
| O=C1C=C2CCC[C@H]3OC(=O)C[C@@]23CC1 |  | > 100 µM (inactive) | > 100 µM (inactive) | > 100 µM | > 100 µM (inactive) | > 100 µM (inactive) | > 100 µM (inactive) | > 100 µM (inactive) | > 100 µM (inactive) | > 100 µM (inactive) | > 100 µM (inactive) | > 100 µM (inactive) | > 100 µM (inactive) | > 100 µM (inactive) | > 100 µM (inactive) | > 100 µM (inactive) | > 100 µM (inactive) | > 100 µM (inactive) | > 100 µM (inactive) |  |
| CC1=C(C(=O)Nc2ccccc2C)C(c2ccc(Cl)cc2)C(C(=O)Nc2ccccc2C)=C(C)N1 |  |  | > 100 µM (inactive) | > 100 µM | > 100 µM (inactive) | > 100 µM (inactive) | > 100 µM (inactive) | > 100 µM (inactive) |  |  | > 100 µM (inactive) | > 100 µM (inactive) | > 100 µM (inactive) | > 100 µM (inactive) | > 100 µM (inactive) | > 100 µM (inactive) | > 100 µM (inactive) | > 100 µM (inactive) |  | > 100 µM (inactive) |
| Cc1c(N)nc([C@H](CC(N)=O)NC[C@H](N)C(N)=O)nc1C(=O)N[C@H](C(=O)N[C@H](C)[C@@H](O)[C@H](C)C(=O)N[C@H](C(=O)NCCc1nc(-c2nc(C(=O)NCCC[S+](C)C)cs2)cs1)[C@@H](C)O)C(OC1OC(CO)C(O)C(O)C1OC1OC(CO)C(O)C(OC(N)=O)C1O)c1c[nH]cn1 (stereo partly drawn) | 10.2 µM (inactive) | 3.66 µM (inactive) | 17.8 µM (inactive) | 3.27 µM | 5.73 µM (inactive) | 14.1 µM (inactive) | 15.6 µM (inactive) | 1.56 µM (inactive) | 19.6 µM (inactive) | 14.8 µM (inactive) | 0.222 µM (active) | 0.0644 µM (active) | 17 µM (inactive) | 18.2 µM (inactive) | 0.984 µM (active) | 0.109 µM (active) | 8.18 µM (inactive) | 0.834 µM (active) |  | 0.478 µM (active) |
| O=C(CC(C(=O)c1ccsc1)c1ccccc1)c1cccs1 (stereo not drawn) |  | > 100 µM (inactive) | > 100 µM (inactive) | 56.9 µM | 41.1 µM (inactive) | 69.2 µM (inactive) | 26.8 µM (inactive) | 24.8 µM (inactive) | 40.6 µM (inactive) | 69.2 µM (inactive) | > 100 µM (inactive) | 27.1 µM (inactive) | > 100 µM (inactive) | > 100 µM (inactive) | > 100 µM (inactive) | 57.4 µM (inactive) | > 100 µM (inactive) | 62.2 µM (inactive) | 11.8 µM (inactive) | 19.6 µM (inactive) |
| CC(C)CCNC(=O)c1ccc(CNC(=O)/C=C/c2ccc3ccccc3c2)cc1 |  | > 100 µM (inactive) | > 100 µM (inactive) | > 100 µM | > 100 µM (inactive) |  | > 100 µM (inactive) | 46.3 µM (inactive) | > 100 µM (inactive) | > 100 µM (inactive) | > 100 µM (inactive) | > 100 µM (inactive) | > 100 µM (inactive) | > 100 µM (inactive) | > 100 µM (inactive) | > 100 µM (inactive) | > 100 µM (inactive) | 36 µM (inactive) | > 100 µM (inactive) | 44.1 µM (inactive) |
| O=C1CC(C2(O)C(=O)Nc3ccc([N+](=O)[O-])cc32)c2ccccc21 (stereo not drawn) |  |  | 28.6 µM (inactive) | 18.2 µM | 14.8 µM (inactive) | 22.5 µM (inactive) | 35.4 µM (inactive) | 18.9 µM (inactive) |  |  | 14.7 µM (inactive) | 16.3 µM (inactive) | 20.7 µM (inactive) | 24.8 µM (inactive) | 31.8 µM (inactive) | 18.2 µM (inactive) | 28.2 µM (inactive) | 17.7 µM (inactive) |  | > 100 µM (inactive) |
| CC[P+]1(c2ccccc2)CCCCC1 |  |  | > 100 µM (inactive) | > 100 µM | > 100 µM (inactive) | > 100 µM (inactive) | > 100 µM (inactive) | > 100 µM (inactive) |  |  | > 100 µM (inactive) | > 100 µM (inactive) | > 100 µM (inactive) | > 100 µM (inactive) | > 100 µM (inactive) | > 100 µM (inactive) | > 100 µM (inactive) | > 100 µM (inactive) |  | > 100 µM (inactive) |
| O=C1c2ccccc2NC2C(O)c3ccccc3N12 (stereo not drawn) | 58.2 µM (inactive) | 45.6 µM (inactive) | 35.4 µM (inactive) | 34.6 µM |  | 60 µM (inactive) | 35.2 µM (inactive) | 81.3 µM (inactive) | 17.7 µM (inactive) |  | > 100 µM (inactive) | 13.2 µM (inactive) | 10.1 µM (inactive) |  | 94.4 µM (inactive) | 38.4 µM (inactive) | 9.46 µM (inactive) | 30 µM (inactive) | 6.5 µM (inactive) | 40.8 µM (inactive) |
| COc1cc2cnc3c4cc(O)ccc4ccc3c2cc1OC |  |  | > 100 µM (inactive) | > 100 µM | 33.2 µM (inactive) | > 100 µM (inactive) | 51.4 µM (inactive) | > 100 µM (inactive) |  |  | 26.4 µM (inactive) | > 100 µM (inactive) | > 100 µM (inactive) | 65.6 µM (inactive) | 35.2 µM (inactive) | 34.2 µM (inactive) | 54.7 µM (inactive) | 10.8 µM (inactive) |  | > 100 µM (inactive) |

— ChEMBL document CHEMBL1201862, “PubChem BioAssay data set” (2004)
